# According to ChEMBL document CHEMBL1201862, “PubChem BioAssay data set” (2004):
#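 A five-concentration, 48-hour dose response in 96-well plates underlies each endpoint, interpolated linearly between surrounding concentrations. The concentration for 50% growth inhibition is given as GI50.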 The source made the active and inactive calls. No stated cut-off is given here; in the data, active = GI50 up to about 1.1 µM and inactive = higher.
# Columns and labels:
# Assay in all cases: NCI-60 cell line screen, 48 h
# [1] = tested on: SF-268
# [2] = tested on: SR
# [3] = tested on: KM-20L2
# [4] = tested on: LXFL 529
# [5] = tested on: SF-295
# [6] = tested on: XF498
# [7] = tested on: HOP-92
# [8] = tested on: EKVX
# [9] = tested on: HL-60
# [10] = tested on: A549
# [11] = tested on: RXF 393
# [12] = tested on: TK-10
# [13] = tested on: SNB-78
# [14] = tested on: HCC 2998
# [15] = tested on: SW-620
# [16] = tested on: OVCAR-4
# [17] = tested on: HOP-62
# [18] = tested on: HCT-116
# [19] = tested on: OVCAR-8
# [20] = tested on: SK-MEL-28
# [21] = tested on: CAKI-1
# [22] = tested on: NCI-H460
# [23] = tested on: UO-31
# [24] = tested on: RXF 631
# [25] = tested on: K562
# [26] = tested on: SF-539
# [27] = tested on: OVCAR-5
# [28] = tested on: 786-0
# [29] = tested on: NCI-H23
# [30] = tested on: HT-29
# [31] = tested on: A498
# [32] = tested on: COLO 205
# [33] = tested on: DMS-273
# [34] = tested on: UACC-257
# [35] = tested on: ACHN
# [36] = tested on: U-251
# [37] = tested on: MOLT-4
# [38] = tested on: Malme-3M
# [39] = tested on: SN12C
# [40] = tested on: NCI-H522
# [41] = tested on: LOX IMVI
# [42] = tested on: CCRF-CEM
# [43] = tested on: NCI-H226
# [44] = tested on: RPMI-8226
# [45] = tested on: M19-MEL
# [46] = tested on: IGROV-1
# [47] = tested on: UACC-62
# [48] = tested on: M14
# [49] = tested on: SK-OV-3
# [50] = tested on: HOP-18
# [51] = tested on: DLD-1
# [52] = tested on: SNB-19
# [53] = tested on: SNB-75
# [54] = tested on: OVCAR-3
# [55] = tested on: DMS-114
# [56] = tested on: KM12
# [57] = tested on: HCT-15
smiles,measurement,setting,value
Nc1nc(-c2ccccc2)cc(-c2ccccc2O)n1,GI50,[1],24 µM (inactive)
same,GI50,[2],30.3 µM (inactive)
same,GI50,[3],30.2 µM (inactive)
same,GI50,[4],30.8 µM (inactive)
same,GI50,[5],71.6 µM (inactive)
same,GI50,[6],> 100 µM (inactive)
same,GI50,[7],> 100 µM (inactive)
same,GI50,[8],23.7 µM (inactive)
same,GI50,[9],16.5 µM (inactive)
same,GI50,[10],34.6 µM (inactive)
same,GI50,[11],27.3 µM (inactive)
same,GI50,[12],46.7 µM (inactive)
same,GI50,[13],76.9 µM (inactive)
same,GI50,[14],40.7 µM (inactive)
same,GI50,[15],41.1 µM (inactive)
same,GI50,[16],51.6 µM (inactive)
same,GI50,[17],25.1 µM (inactive)
same,GI50,[18],20.7 µM (inactive)
same,GI50,[19],39.7 µM (inactive)
same,GI50,[20],57.1 µM (inactive)
same,GI50,[21],34.1 µM (inactive)
same,GI50,[22],36.2 µM (inactive)
same,GI50,[23],8.15 µM (inactive)
same,GI50,[24],34.1 µM (inactive)
same,GI50,[25],39.1 µM (inactive)
same,GI50,[26],37.4 µM (inactive)
same,GI50,[27],32.8 µM (inactive)
same,GI50,[28],48.6 µM (inactive)
same,GI50,[29],43.3 µM (inactive)
same,GI50,[30],33.4 µM (inactive)
same,GI50,[31],40.7 µM (inactive)
same,GI50,[32],43.3 µM (inactive)
same,GI50,[33],32 µM (inactive)
same,GI50,[34],73.8 µM (inactive)
same,GI50,[35],27.2 µM (inactive)
same,GI50,[36],45.2 µM (inactive)
same,GI50,[37],25.1 µM (inactive)
same,GI50,[38],> 100 µM (inactive)
same,GI50,[39],37.8 µM (inactive)
same,GI50,[40],22.9 µM (inactive)
same,GI50,[41],31.8 µM (inactive)
same,GI50,[42],34 µM (inactive)
same,GI50,[43],19 µM (inactive)
same,GI50,[44],22.6 µM (inactive)
same,GI50,[45],43.1 µM (inactive)
same,GI50,[46],49.4 µM (inactive)
same,GI50,[47],59.2 µM (inactive)
same,GI50,[48],81.1 µM (inactive)
same,GI50,[49],85.9 µM (inactive)
same,GI50,[50],> 100 µM (inactive)
same,GI50,[51],23.9 µM (inactive)
same,GI50,[52],68.9 µM (inactive)
same,GI50,[53],36.6 µM (inactive)
same,GI50,[54],33.5 µM (inactive)
same,GI50,[55],35.2 µM (inactive)
same,GI50,[56],23.9 µM (inactive)
CC1CCCc2c(CC3CC(=O)NC(=O)C3)n[nH]c21 (stereo not drawn),GI50,[1],> 100 µM (inactive)
same,GI50,[2],> 100 µM (inactive)
same,GI50,[3],> 100 µM (inactive)
same,GI50,[4],> 100 µM (inactive)
same,GI50,[5],> 100 µM (inactive)
same,GI50,[6],> 100 µM (inactive)
same,GI50,[7],> 100 µM (inactive)
same,GI50,[8],> 100 µM (inactive)
same,GI50,[9],> 100 µM (inactive)
same,GI50,[10],> 100 µM (inactive)
same,GI50,[11],> 100 µM (inactive)
same,GI50,[12],> 100 µM (inactive)
same,GI50,[13],> 100 µM (inactive)
same,GI50,[14],> 100 µM (inactive)
same,GI50,[15],> 100 µM (inactive)
same,GI50,[57],> 100 µM
same,GI50,[16],> 100 µM (inactive)
same,GI50,[17],> 100 µM (inactive)
same,GI50,[18],> 100 µM (inactive)
same,GI50,[19],> 100 µM (inactive)
same,GI50,[20],> 100 µM (inactive)
same,GI50,[21],> 100 µM (inactive)
same,GI50,[22],> 100 µM (inactive)
same,GI50,[23],> 100 µM (inactive)
same,GI50,[24],> 100 µM (inactive)
same,GI50,[25],> 100 µM (inactive)
same,GI50,[26],> 100 µM (inactive)
same,GI50,[27],> 100 µM (inactive)
same,GI50,[28],> 100 µM (inactive)
same,GI50,[29],> 100 µM (inactive)
same,GI50,[30],> 100 µM (inactive)
same,GI50,[31],> 100 µM (inactive)
same,GI50,[32],> 100 µM (inactive)
same,GI50,[33],> 100 µM (inactive)
same,GI50,[34],> 100 µM (inactive)
same,GI50,[35],> 100 µM (inactive)
same,GI50,[36],> 100 µM (inactive)
same,GI50,[37],> 100 µM (inactive)
same,GI50,[38],> 100 µM (inactive)
same,GI50,[39],> 100 µM (inactive)
same,GI50,[40],> 100 µM (inactive)
same,GI50,[41],> 100 µM (inactive)
same,GI50,[42],> 100 µM (inactive)
same,GI50,[43],> 100 µM (inactive)
same,GI50,[44],> 100 µM (inactive)
same,GI50,[45],> 100 µM (inactive)
same,GI50,[46],> 100 µM (inactive)
same,GI50,[47],> 100 µM (inactive)
same,GI50,[48],> 100 µM (inactive)
same,GI50,[49],> 100 µM (inactive)
same,GI50,[50],> 100 µM (inactive)
same,GI50,[51],> 100 µM (inactive)
same,GI50,[52],> 100 µM (inactive)
same,GI50,[53],> 100 µM (inactive)
same,GI50,[54],> 100 µM (inactive)
same,GI50,[55],> 100 µM (inactive)
same,GI50,[56],> 100 µM (inactive)
